The values below come from ChEMBL document CHEMBL1154879, “Discovery of (thienopyrimidin-2-yl)aminopyrimidines as potent, selective, and orally available pan-PI3-kinase and dual pan-PI3-kinase/mTOR inhibitors for the treatment of cancer” (J Med Chem, 2010).

Data set [1] in a line: Antiproliferative activity against human MCF7.1 cells expressing PI3Kalpha mutant after 3 to 4 days. Type of data set: functional, cell-based.
For data set [2], the system named is PC-3. Nature of the data set: Antiproliferative activity against human PC3 cells deficient in PTEN in after 3 to 4 days. Type of data set: functional, cell-based.
The nature of data set [3]: Clearance in Sprague-Dawley rat at 1 mg/kg, iv. Type of data set: ADME, organism-based. On the set-up: dose 1 mg/kg, route intravenous. Conditions: in vivo.
The nature of data set [4]: Oral bioavailability in Sprague-Dawley rat at 2 mg/kg. Format: ADME, organism-based. Conditions: in vivo.
Data set [5] can be described thus: Clearance in Sprague-Dawley rat liver microsomes. Type of data set: ADME, Microsome.
Data set [6] concerns the target Serine/threonine-protein kinase mTOR (Homo sapiens, UniProt P42345).
The target of data set [7] is Phosphatidylinositol 4,5-bisphosphate 3-kinase catalytic subunit alpha isoform (Homo sapiens, UniProt P42336).
Data set [8] deals with Phosphatidylinositol 4,5-bisphosphate 3-kinase catalytic subunit beta isoform (Homo sapiens, UniProt P42338). The data set can be described thus: Inhibition of recombinant PI3Kbeta assessed as PIP3 product formation by fluorescence polarization assay.
Data set [9] has as its target T1, Phosphatidylinositol 4,5-bisphosphate 3-kinase catalytic subunit delta isoform (Homo sapiens, UniProt O00329).
T1 sequence (O00329 whole entry): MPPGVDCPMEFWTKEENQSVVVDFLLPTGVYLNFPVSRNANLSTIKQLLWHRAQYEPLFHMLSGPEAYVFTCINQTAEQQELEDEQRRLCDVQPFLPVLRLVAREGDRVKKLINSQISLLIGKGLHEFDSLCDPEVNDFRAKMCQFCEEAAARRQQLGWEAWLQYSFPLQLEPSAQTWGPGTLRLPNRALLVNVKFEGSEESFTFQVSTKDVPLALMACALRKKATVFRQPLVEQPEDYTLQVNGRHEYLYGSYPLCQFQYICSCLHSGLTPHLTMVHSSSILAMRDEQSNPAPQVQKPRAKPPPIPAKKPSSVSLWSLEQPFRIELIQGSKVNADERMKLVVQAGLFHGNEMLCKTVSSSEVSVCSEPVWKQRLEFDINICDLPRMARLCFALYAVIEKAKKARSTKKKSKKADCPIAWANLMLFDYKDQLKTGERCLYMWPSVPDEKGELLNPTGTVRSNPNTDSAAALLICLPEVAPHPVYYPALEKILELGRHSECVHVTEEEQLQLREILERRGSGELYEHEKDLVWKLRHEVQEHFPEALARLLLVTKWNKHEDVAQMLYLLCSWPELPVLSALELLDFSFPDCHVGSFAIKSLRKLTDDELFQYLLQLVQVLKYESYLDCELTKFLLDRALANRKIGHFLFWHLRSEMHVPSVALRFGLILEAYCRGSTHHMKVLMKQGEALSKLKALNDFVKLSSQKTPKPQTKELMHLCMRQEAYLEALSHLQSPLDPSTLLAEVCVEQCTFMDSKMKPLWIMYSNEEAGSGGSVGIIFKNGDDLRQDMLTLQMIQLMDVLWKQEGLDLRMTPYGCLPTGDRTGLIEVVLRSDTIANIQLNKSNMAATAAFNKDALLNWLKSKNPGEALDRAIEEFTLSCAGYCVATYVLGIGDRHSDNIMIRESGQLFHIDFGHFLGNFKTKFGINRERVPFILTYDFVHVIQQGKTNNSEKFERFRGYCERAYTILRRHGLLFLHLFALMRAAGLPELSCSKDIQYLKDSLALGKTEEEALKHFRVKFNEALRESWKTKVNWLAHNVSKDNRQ

The target of data set [10] is Phosphatidylinositol 4,5-bisphosphate 3-kinase catalytic subunit gamma isoform (Homo sapiens, UniProt P48736).
Data set [11] can be described thus: Clearance in Beagle dog at 1 mg/kg, iv. On the set-up: dose 1 mg/kg, route intravenous. Conditions: in vivo. Type of data set: ADME, organism-based, Canis lupus familiaris.
A short description of data set [12]: Volume of distribution at steady state in Sprague-Dawley rat at 1 mg/kg, iv. Format: ADME, organism-based. On the set-up: dose 1 mg/kg, route intravenous. Particulars: in vivo, read-out: Vdss.
The nature of data set [13]: Oral bioavailability in Sprague-Dawley rat at 5 mg/kg, po. Type of data set: ADME, organism-based. Conditions: in vivo.

SMILES strings stand for the structures.

Phosphatidylinositol 4,5-bisphosphate 3-kinase catalytic subunit gamma isoform, sequence (P48736 whole entry, canonical isoform): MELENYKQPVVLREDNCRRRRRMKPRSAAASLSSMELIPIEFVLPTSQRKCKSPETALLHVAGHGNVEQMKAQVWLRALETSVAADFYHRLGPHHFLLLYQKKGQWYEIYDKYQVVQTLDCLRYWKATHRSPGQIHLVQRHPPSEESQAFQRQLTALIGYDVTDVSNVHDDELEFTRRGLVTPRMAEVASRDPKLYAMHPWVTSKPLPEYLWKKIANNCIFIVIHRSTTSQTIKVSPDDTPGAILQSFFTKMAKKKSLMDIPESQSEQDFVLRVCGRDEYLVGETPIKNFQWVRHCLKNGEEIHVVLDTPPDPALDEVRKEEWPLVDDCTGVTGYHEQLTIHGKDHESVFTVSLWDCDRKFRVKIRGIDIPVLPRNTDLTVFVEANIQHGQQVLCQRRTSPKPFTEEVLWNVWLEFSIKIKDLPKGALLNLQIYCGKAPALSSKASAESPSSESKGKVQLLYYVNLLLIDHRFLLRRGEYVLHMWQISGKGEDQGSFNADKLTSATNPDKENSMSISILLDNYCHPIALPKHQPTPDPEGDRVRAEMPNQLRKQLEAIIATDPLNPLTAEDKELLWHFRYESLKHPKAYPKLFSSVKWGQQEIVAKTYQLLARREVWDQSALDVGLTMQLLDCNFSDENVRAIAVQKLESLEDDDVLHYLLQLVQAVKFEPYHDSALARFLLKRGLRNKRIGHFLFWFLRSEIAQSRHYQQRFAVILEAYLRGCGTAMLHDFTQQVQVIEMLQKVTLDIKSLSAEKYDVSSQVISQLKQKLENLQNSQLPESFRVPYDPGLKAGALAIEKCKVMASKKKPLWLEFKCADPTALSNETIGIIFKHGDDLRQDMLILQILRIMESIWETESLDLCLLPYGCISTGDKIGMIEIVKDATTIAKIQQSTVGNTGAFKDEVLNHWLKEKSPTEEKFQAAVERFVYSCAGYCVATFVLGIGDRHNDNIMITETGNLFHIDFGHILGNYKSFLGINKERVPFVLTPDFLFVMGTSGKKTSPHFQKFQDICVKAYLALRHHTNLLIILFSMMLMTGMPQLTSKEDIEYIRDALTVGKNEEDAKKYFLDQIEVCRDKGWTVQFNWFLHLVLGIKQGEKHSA
Phosphatidylinositol 4,5-bisphosphate 3-kinase catalytic subunit beta isoform, sequence (P42338 whole entry, canonical isoform): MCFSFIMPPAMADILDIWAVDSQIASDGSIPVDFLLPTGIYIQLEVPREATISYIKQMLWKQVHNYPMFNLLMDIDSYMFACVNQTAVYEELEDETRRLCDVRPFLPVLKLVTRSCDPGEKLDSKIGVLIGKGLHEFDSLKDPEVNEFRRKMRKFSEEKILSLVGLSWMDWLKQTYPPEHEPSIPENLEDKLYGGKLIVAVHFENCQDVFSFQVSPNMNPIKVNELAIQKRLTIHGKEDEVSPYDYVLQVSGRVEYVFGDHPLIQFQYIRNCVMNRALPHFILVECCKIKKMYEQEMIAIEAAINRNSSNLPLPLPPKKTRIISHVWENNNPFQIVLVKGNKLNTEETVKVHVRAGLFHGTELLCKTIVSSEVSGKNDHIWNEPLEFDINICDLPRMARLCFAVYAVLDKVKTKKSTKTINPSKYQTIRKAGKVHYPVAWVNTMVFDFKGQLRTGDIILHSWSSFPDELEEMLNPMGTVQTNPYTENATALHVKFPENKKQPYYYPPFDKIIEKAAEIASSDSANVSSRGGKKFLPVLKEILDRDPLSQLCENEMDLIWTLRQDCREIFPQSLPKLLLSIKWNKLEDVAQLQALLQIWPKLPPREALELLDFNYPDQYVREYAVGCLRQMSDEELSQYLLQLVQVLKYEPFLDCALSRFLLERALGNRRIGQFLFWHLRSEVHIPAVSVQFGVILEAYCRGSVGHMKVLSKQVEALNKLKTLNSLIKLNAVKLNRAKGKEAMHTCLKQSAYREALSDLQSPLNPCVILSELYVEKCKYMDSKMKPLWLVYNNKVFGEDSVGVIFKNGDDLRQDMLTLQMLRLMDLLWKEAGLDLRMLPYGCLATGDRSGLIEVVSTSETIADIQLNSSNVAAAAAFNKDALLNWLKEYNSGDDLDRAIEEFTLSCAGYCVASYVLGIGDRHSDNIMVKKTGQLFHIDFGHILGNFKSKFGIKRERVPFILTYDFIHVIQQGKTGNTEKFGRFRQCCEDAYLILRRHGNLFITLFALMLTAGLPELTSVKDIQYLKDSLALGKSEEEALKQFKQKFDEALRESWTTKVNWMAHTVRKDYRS
Phosphatidylinositol 4,5-bisphosphate 3-kinase catalytic subunit alpha isoform, sequence (P42336 whole entry, canonical isoform): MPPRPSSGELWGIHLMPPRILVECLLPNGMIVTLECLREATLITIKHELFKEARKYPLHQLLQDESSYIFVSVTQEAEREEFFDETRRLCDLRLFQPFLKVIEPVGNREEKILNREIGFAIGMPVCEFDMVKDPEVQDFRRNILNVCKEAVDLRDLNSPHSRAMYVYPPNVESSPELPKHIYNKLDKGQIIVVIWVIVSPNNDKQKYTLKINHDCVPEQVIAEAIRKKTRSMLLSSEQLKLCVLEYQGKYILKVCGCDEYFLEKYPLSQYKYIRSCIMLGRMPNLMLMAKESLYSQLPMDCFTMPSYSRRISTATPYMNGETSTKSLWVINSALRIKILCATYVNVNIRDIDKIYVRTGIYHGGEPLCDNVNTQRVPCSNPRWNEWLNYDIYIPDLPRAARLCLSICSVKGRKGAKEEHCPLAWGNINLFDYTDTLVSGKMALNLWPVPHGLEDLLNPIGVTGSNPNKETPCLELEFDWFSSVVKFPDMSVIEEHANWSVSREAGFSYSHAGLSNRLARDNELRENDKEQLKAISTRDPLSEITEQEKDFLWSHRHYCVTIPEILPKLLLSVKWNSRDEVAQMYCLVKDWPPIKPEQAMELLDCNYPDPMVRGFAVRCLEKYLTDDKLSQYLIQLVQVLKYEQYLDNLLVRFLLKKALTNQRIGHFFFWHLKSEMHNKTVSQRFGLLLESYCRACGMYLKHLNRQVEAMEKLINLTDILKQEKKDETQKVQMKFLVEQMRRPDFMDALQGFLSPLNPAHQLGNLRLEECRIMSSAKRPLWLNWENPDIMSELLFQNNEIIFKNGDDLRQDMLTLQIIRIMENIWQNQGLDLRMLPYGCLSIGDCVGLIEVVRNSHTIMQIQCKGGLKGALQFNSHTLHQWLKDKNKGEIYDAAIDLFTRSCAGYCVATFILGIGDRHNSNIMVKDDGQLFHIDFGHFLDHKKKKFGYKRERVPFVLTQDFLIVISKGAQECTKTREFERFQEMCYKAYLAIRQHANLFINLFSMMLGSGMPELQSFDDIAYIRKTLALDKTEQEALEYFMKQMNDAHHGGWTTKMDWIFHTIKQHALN

Usually IC50 stands for the concentration that gives 50% inhibition. In general, clearance refers to a measure of how efficiently the substance is removed, as volume per time. A low value points to inefficient removal. Usually bioavailability stands for the share of a dose that reaches the circulation, judged against a reference dose that is usually intravenous. A lower bioavailability goes with poor availability. Broadly, the CLint scaled is the capacity of the preparation to metabolise the compound, expressed as a volume cleared per time. Lower therefore signals greater metabolic stability. As to `CC(C)(O)c1cc2nc(-c3cccc4[nH]ncc34)nc(N3CCOCC3)c2s1`, the IC50 in data set [1] was found to be 1400 nM; in data set [2], 1400 nM; in [6] it was 130 nM; in [7] it was 22 nM. Moreover, the clearance in [3] stood at 16 mL/min/kg. Also, the bioavailability in data set [4] turned out to be 29%. Moreover, the intrinsic clearance (CLint scaled) in [5] is 40 mL/min/kg.

With `Cc1nc(N)ncc1-c1nc(N2CCOCC2)c2sc(CN3CCN(S(C)(=O)=O)CC3)cc2n1`, the IC50 in data set [8] was 6.2 nM; in data set [1] it was 290 nM; in data set [2], 230 nM; in data set [6], 880 nM; in data set [7], 1.1 nM; in [9], 0.7 nM.

Regarding `CS(=O)(=O)N1CCN(Cc2cc3nc(-c4cccc(CO)c4)nc(N4CCOCC4)c3s2)CC1`, the IC50 in [1] was 320 nM; in [2], 75 nM; in data set [7], 1.8 nM; in data set [9] it was 1.4 nM.

`CS(=O)(=O)N1CCN(Cc2cc3nc(-c4cccnc4)nc(N4CCOCC4)c3s2)CC1`: the IC50 in data set [8] turned out to be 14 nM; in [1], 1400 nM; in data set [2], 1800 nM; in data set [7] it was 21 nM; in [9], 12 nM; in [10], 19 nM.

Turning to `CS(=O)(=O)N1CCN(Cc2cc3nc(-c4ccccc4)nc(N4CCOCC4)c3s2)CC1`, the IC50 worked out at 3700 nM in data set [1], 3700 nM in data set [2] and 430 nM in [7].

As for `CC(=O)NCc1cc2nc(-c3cccc4[nH]ncc34)nc(N3CCOCC3)c2s1`, the IC50 in [2] stood at 1500 nM; in data set [7] it was 16 nM. Also, the clearance in data set [3] is 86 mL/min/kg. In addition, in [4], the bioavailability was determined as 34%. Moreover, the CLint scaled in data set [5] was 40 mL/min/kg.

As to `CS(=O)(=O)N1CCN(Cc2cc3nc(-c4ccncc4)nc(N4CCOCC4)c3s2)CC1`, the half-maximal inhibitory concentration (IC50) in [8] was 5400 nM; in [7] it was 2900 nM; in data set [9], 310 nM; in data set [10] it was 5100 nM.

As for `CS(=O)(=O)N1CCN(Cc2cc3nc(-c4ccc(N)nc4)nc(N4CCOCC4)c3s2)CC1`, the IC50 in data set [8] was 60 nM; in data set [1] it was 200 nM; in data set [2] it was 270 nM; in [7], 5.5 nM; in data set [9], 6.6 nM. Further, the clearance in data set [11] was determined as 16 mL/min/kg.

As to `CS(=O)(=O)N1CCN(Cc2cc3nc(-c4cnc(N)nc4)nc(N4CCOCC4)c3s2)CC1`, in [12], the Vd is 5.6 L/kg. In addition, the half-inhibitory concentration (IC50) in data set [8] was found to be 38 nM; in data set [2], 300 nM; in [6], 29 nM; in [9] it was 2.4 nM; in data set [10], 8.4 nM. Moreover, the clearance in data set [3] amounted to 24 mL/min/kg; in data set [11], 22 mL/min/kg. Further, the bioavailability in data set [13] was 75%.

`OCc1cc2nc(-c3cccc4[nH]ncc34)nc(N3CCOCC3)c2s1`: the IC50 in data set [2] is 1200 nM; in [7], 29 nM. Also, in data set [5], the intrinsic metabolic clearance (CLint scaled) amounted to 170 mL/min/kg.

For `CS(=O)(=O)N1CCN(Cc2cc3nc(-c4cccc5[nH]ncc45)nc(N4CCOCC4)c3s2)CC1` [PICTILISIB], the IC50 in [1] amounted to 340 nM; in data set [2] it was 390 nM.

With `CS(=O)(=O)N1CCN(Cc2cc3nc(-c4cccc(O)c4)nc(N4CCOCC4)c3s2)CC1`, the concentration for half-maximal inhibition (IC50) in [8] was found to be 11 nM; in data set [1], 36 nM; in [2], 21 nM; in data set [7], 1.6 nM; in data set [9] it was 0.9 nM; in data set [10], 20 nM.

Regarding `CS(=O)(=O)N1CCN(Cc2cc3nc(-c4ccc(N)cc4)nc(N4CCOCC4)c3s2)CC1`, the IC50 was determined as 1400 nM in data set [8]; 2700 nM in [1]; 1200 nM in data set [2]; 240 nM in data set [7]; 100 nM in data set [9]; 1300 nM in data set [10].

On to `CC(O)c1cc2nc(-c3cccc4[nH]ncc34)nc(N3CCOCC3)c2s1` (configuration not stated), for which the 50% inhibitory concentration (IC50) in data set [2] came out at 1100 nM; in data set [7], 28 nM. For the same compound, the clearance in data set [3] was found to be 101 mL/min/kg. In data set [4], the bioavailability came out at 17%. Moreover, the CLint scaled in data set [5] came out at 95 mL/min/kg.
